US10770169B2, “Method of providing a treatment to a subject based on a dynamic pathway map” (THE REGENTS OF THE UNIVERSITY OF CALIFORNIA, priority 2010, dated 2020)
Where two headings read alike, the source gives them in different places.

Key:
[1] = test system: panel of 55 breast cancer cell lines; experiment: Cell growth inhibition assay (Cell Titer Glo, 72 h, 9 doses; GI50, TGI, LC50); format: cell-based, human; settings: Homo sapiens, read-out: GI50 (converted)
[2] = test system: breast cancer cell lines with aberrant vs normal copy number; experiment: Association of recurrent copy number changes and response (t-test on GI50); format: cell-based, human; settings: FDR p<0.2
Excerpt: We used a t-test to assess the association between recurrent copy number changes (at 8q24 (MYC), 11q13 (CCND1), 20q13 (STK15/AURKA)) and drug sensitivity. We combined into a single group cell lines with low or no amplification and compared them to cell lines with high amplification. […] Cell lines for which the GI50 was equal to the maximum concentration tested were omitted from analysis. We omitted compounds where any group had fewer than five samples.

## CCC1=C[C@@H]2CN(C1)Cc1c([nH]c3ccccc13)[C@@](C(=O)OC)(c1cc3c(cc1OC)N(C)[C@H]1[C@@](O)(C(=O)OC)[C@H](OC(C)=O)[C@]4(CC)C=CCN5CC[C@]31[C@@H]54)C2 [Vinorelbine]
[1]; 600MPE cell line, censored GI50 values
  GI50: 5.13 µM
[1]; AU565, AU565 cell line, censored GI50 values
  GI50: 0.00871 µM
[1]; AU565, cell line AU565
  GI50: 0.00871 µM
[1]; BT-474, BT474 cell line, censored GI50 values
  GI50: 0.0479 µM
[1]; BT-474, cell line BT474
  GI50: 0.0479 µM
[1]; BT-483, BT483 cell line, censored GI50 values
  GI50: 0.00724 µM
[1]; BT-483, cell line BT483
  GI50: 0.00724 µM
[1]; BT-549, BT549 cell line, censored GI50 values
  GI50: 0.00955 µM
[1]; BT-549, cell line BT549
  GI50: 0.00955 µM
[1]; CAMA-1, CAMA1 cell line, censored GI50 values
  GI50: 0.0132 µM
[1]; CAMA-1, cell line CAMA1
  GI50: 0.0132 µM
[1]; HCC38, HCC38 cell line, censored GI50 values
  GI50: 0.0115 µM
[1]; HCC38, cell line HCC38
  GI50: 0.0115 µM
[1]; HCC70, HCC70 cell line, censored GI50 values
  GI50: 0.00741 µM
[1]; HCC70, cell line HCC70
  GI50: 0.00741 µM
[1]; HCC202, HCC202 cell line, censored GI50 values
  GI50: 0.0135 µM
[1]; HCC202, cell line HCC202
  GI50: 0.0135 µM
[1]; HCC1143, HCC1143 cell line, censored GI50 values
  GI50: 0.263 µM
[1]; HCC1143, cell line HCC1143
  GI50: 0.263 µM
[1]; HCC1187, HCC1187 cell line, censored GI50 values
  GI50: 0.0269 µM
[1]; HCC1187, cell line HCC1187
  GI50: 0.0269 µM
[1]; HCC1395, HCC1395 cell line, censored GI50 values
  GI50: 0.00355 µM
[1]; HCC1395, cell line HCC1395
  GI50: 0.00355 µM
[1]; HCC1419, HCC1419 cell line, censored GI50 values
  GI50: 0.355 µM
[1]; HCC1419, cell line HCC1419
  GI50: 0.355 µM
[1]; HCC1428, HCC1428 cell line, censored GI50 values
  GI50: 2.19 µM
[1]; HCC1428, cell line HCC1428
  GI50: 2.19 µM
[1]; HCC1500, HCC1500 cell line, censored GI50 values
  GI50: 0.011 µM
[1]; HCC1500, cell line HCC1500
  GI50: 0.011 µM
[1]; HCC1806, HCC1806 cell line, censored GI50 values
  GI50: 0.0117 µM
[1]; HCC1806, cell line HCC1806
  GI50: 0.0117 µM
[1]; HCC1937, HCC1937 cell line, censored GI50 values
  GI50: 0.224 µM
[1]; HCC1937, cell line HCC1937
  GI50: 0.224 µM
[1]; HCC1954, HCC1954 cell line, censored GI50 values
  GI50: 0.00355 µM
[1]; HCC1954, cell line HCC1954
  GI50: 0.00355 µM
[1]; HCC2185 cell line, censored GI50 values
  GI50: 26.3 µM
[1]; HCC3153 cell line, censored GI50 values
  GI50: 0.0513 µM
[1]; LY2 cell line, censored GI50 values
  GI50: 0.0132 µM
[1]; MCF7, MCF7 cell line, censored GI50 values
  GI50: 0.0166 µM
[1]; MCF7, cell line MCF7
  GI50: 0.0166 µM
[1]; MDA-MB-134-VI, MDAMB134VI cell line, censored GI50 values
  GI50: 0.0135 µM
[1]; MDA-MB-157, MDAMB157 cell line, censored GI50 values
  GI50: 0.0129 µM
[1]; MDA-MB-157, cell line MDAMB157
  GI50: 0.0129 µM
[1]; MDA-MB-175-VII, MDAMB175VII cell line, censored GI50 values
  GI50: 0.0389 µM
[1]; MDA-MB-231, MDAMB231 cell line, censored GI50 values
  GI50: 0.00513 µM
[1]; MDA-MB-231, cell line MDAMB231
  GI50: 0.00513 µM
[1]; MDA-MB-361, MDAMB361 cell line, censored GI50 values
  GI50: 0.00661 µM
[1]; MDA-MB-361, cell line MDAMB361
  GI50: 0.00661 µM
[1]; MDA-MB-415, MDAMB415 cell line, censored GI50 values
  GI50: 0.0182 µM
[1]; MDA-MB-415, cell line MDAMB415
  GI50: 0.0182 µM
[1]; MDA-MB-436, MDAMB436 cell line, censored GI50 values
  GI50: 0.0269 µM
[1]; MDA-MB-436, cell line MDAMB436
  GI50: 0.0269 µM
[1]; MDA-MB-453, MDAMB453 cell line, censored GI50 values
  GI50: 0.0038 µM
[1]; MDA-MB-453, cell line MDAMB453
  GI50: 0.0038 µM
[1]; MDA-MB-468, MDAMB468 cell line, censored GI50 values
  GI50: 0.0107 µM
[1]; MDA-MB-468, cell line MDAMB468
  GI50: 0.0107 µM
[1]; SK-BR-3, SKBR3 cell line, censored GI50 values
  GI50: 0.0174 µM
[1]; SK-BR-3, cell line SKBR3
  GI50: 0.0174 µM
[1]; SUM52PE, SUM52PE cell line, censored GI50 values
  GI50: 0.00537 µM
[1]; SUM52PE, cell line SUM52PE
  GI50: 0.00537 µM
[1]; SUM149PT, SUM149PT cell line, censored GI50 values
  GI50: 0.0123 µM
[1]; SUM149PT, cell line SUM149PT
  GI50: 0.0123 µM
[1]; SUM185PE, SUM185PE cell line, censored GI50 values
  GI50: 0.00832 µM
[1]; SUM185PE, cell line SUM185PE
  GI50: 0.00832 µM
[1]; SUM1315MO2, SUM1315MO2 cell line, censored GI50 values
  GI50: 0.00224 µM
[1]; SUM-159-PT, SUM159PT cell line, censored GI50 values
  GI50: 0.0123 µM
[1]; SUM-159-PT, cell line SUM159PT
  GI50: 0.0123 µM
[1]; T47D, T47D cell line, censored GI50 values
  GI50: 4.68 µM
[1]; T47D, cell line T47D
  GI50: 4.68 µM
[1]; UACC-812, UACC812 cell line, censored GI50 values
  GI50: 0.0741 µM
[1]; UACC-812, cell line UACC812
  GI50: 0.0741 µM
[1]; UACC-893, UACC893 cell line, censored GI50 values
  GI50: 0.011 µM
[1]; UACC-893, cell line UACC893
  GI50: 0.011 µM
[1]; ZR-75-1, ZR751 cell line, censored GI50 values
  GI50: 0.0447 µM
[1]; ZR-75-1, cell line ZR751
  GI50: 0.0447 µM
[1]; ZR-75B, ZR75B cell line, censored GI50 values
  GI50: 0.00891 µM
[1]; ZR-75B, cell line ZR75B
  GI50: 0.00891 µM
[1]; cell line 600MPE
  GI50: 5.13 µM
[1]; cell line HCC2185
  GI50: 26.3 µM
[1]; cell line HCC3153
  GI50: 0.0513 µM
[1]; cell line LY2
  GI50: 0.0132 µM
[1]; cell line MDAMB134V
  GI50: 0.0135 µM
[1]; cell line MDAMB175V
  GI50: 0.0389 µM
[1]; cell line SUM1315MO
  GI50: 0.00224 µM
[2]
  association of response with homozygous deletion at 9p21 (CDKN2A): associated with response
